This is an account of results in patent US5550109A, “Inducible defensin peptide from mammalian epithelia” (priority 1994, dated 1996).

Holding throughout (experiment): Minimum inhibitory concentration, 96 well microtitre plate
Assay type in all cases: cell-based

In experiment [1] the test system is Escherichia coli (D31). To be noted: 1/4 strength TSB, 1×10^5 /ml. The procedure: (§1) Antimicrobial activity was determined during the purification process. Approximately 2.5 ml fractions from the P-30 gel filtration column were assessed after drawing fractions and taking an aliquot of the fraction and spotting that fraction on a radial diffusion plate as described by Zasloff, M. (Proc. Natl. Acad. Sci USA 84: 5449-5453, 1987) against E. coli D31 or fungal pathogens such as Candida albicans, Candida tropicalis, or Staphylococcus aureus. (See also, Zasloff et al., Proc. Natl. Acad. Sci. USA 85: 910-913, 1988.) (FIGS. 1B and 1C.) Briefly, the minimal inhibitory concentrations (MIC's) were assessed using a 96 well microtitre plate (Corning Glass Works, Corning, N.Y.). Microorganisms were grown in log phase at 1/4 strength tryptics soy broth (TSB) at a density of 1×10^5 /ml. The assays used 1/4 strength TSB. For each organism, dilutions of peptide were made ranging from >500 μg/ml to 1 μg/ml using 1/4 strength TSB as a dilution buffer. Zones of bacterial growth or lack of growth were assessed under the microscope. MIC's were calculated based the lowest concentration of peptide that inhibited growth.

For experiment [2], the system named is Staphylococcus aureus (29213). The settings on record: Staphylococcus aureus (ATCC 29213); 1/4 strength TSB, 1×10^5 /ml. How it is done: as §1
Experiment [3] has as its system Candida albicans (14053). The settings on record: Candida albicans (ATCC 14053); 1/4 strength TSB, 1×10^5 /ml. The procedure: as §1
Experiment [4] relates to Pseudomonas aeruginosa (27853). To be noted: Pseudomonas aeruginosa (ATCC 27853); 1/4 strength TSB, 1×10^5 /ml. How it is done: as §1
The test system of experiment [5] is Candida tropicalis (13803). To be noted: Candida tropicalis (ATCC 13803); 1/4 strength TSB, 1×10^5 /ml. How it is done:
as §1

Bridges are numbered along the chain shown (N, C = ends). Where no end group is shown, it is not given here. [ ]: non-standard residue; d: D form. pGlu = O=C1CC[C@@H](C(=O)O)N1

With Magainin II-amide, the “Minimum Inhibitory Concentration” value in experiment [1] fell in the range of 13 to 25 µg/mL; in experiment [2] it was 50 to 100 µg/mL; in experiment [3] it was 50 to 100 µg/mL; in experiment [4], 13 to 25 µg/mL; in experiment [5], 13 to 25 µg/mL.

With “[pGlu]GVRNSQSCRRNKGICVPIRCPGSMRQIGTCLGAQVKCCRRK (disulfide 9-38, 16-31, 21-39) [LAP, lingual antimicrobial peptide]”, the “Minimum Inhibitory Concentration” value fell in the range of 16 to 32 µg/mL in experiment [1]; 63 to 125 µg/mL in experiment [2]; 32 to 63 µg/mL in experiment [3]; 63 to 125 µg/mL in experiment [4]; 16 to 32 µg/mL in experiment [5].
